From patent US7700610B2, “Use of tyrosine kinase inhibitors for treating allergic diseases” (AB Science, priority 2001, dated 2010)

How the values were obtained:
[1] = system: dog afflicted with severe atopic dermatitis; conditions: 3 year old dog with severe atopic dermatitis, 3 mg/kg/d together with cefalexine and ketoconazole
dog cutaneous mast cells = conditions: in vitro, Garcia and DeMora, Am J Vet Res 1997; cited from earlier work

| Structure (SMILES) | superficial pyodermatitis and generalized Malassezia dermatitis following treatment (FIG. 3) [1] | inhibition of histamine release (dog cutaneous mast cells) | prodegranulating effect (dog cutaneous mast cells) |
| --- | --- | --- | --- |
| Cc1ccc(NC(=O)c2ccc(CN3CCN(C)CC3)cc2)cc1Nc1nccc(-c2cccnc2)n1 [4-(4-méthylpipérazine-1-ylméthyl)-N-[4-méthyl-3-[(4-pyridine-3-yl-)pyrimidine-2Yl)amino-)]phényl]-benzamide] | resolution of the superficial pyodermatitis and generalized Malassezia dermatitis |  |  |
| CCOC(=O)N1CCC(=C2c3ccc(Cl)cc3CCc3cccnc32)CC1 [loratadine] |  | potent inhibition | without a substantial prodegranulating effect |
